Drawing on US20090170846A1, “INHIBITORS OF THE HIV INTEGRASE ENZYME” (Pfizer Inc, priority 2005, published 2009), this text covers IC50 and EC50 for 16 molecules.

Like-named read-outs stand apart in the source and are kept apart here.

Assay [1] concerns the target T1, Full-length wild type HIV-1 integrase (SF1) (Human immunodeficiency virus type 1 group M subtype B, UniProt P04585).
T1 construct: made in house; host or cells: E. coli BL21 (DE3)
Description: Integrase strand-transfer scintillation proximity assay. Type of assay: biochemical. The text has this:
Integrase Strand-Transfer Scintillation Proximity Assay
Oligonucleotides: Oligonucleotide #1-5′-(biotin)[…]-3′ (SEQ ID NO: 1) and oligonucleotide #2-5′-[…]-3′ (SEQ ID NO: 2), were synthesized by TriLink BioTechnologies, Inc. (San Diego, Calif.). The annealed product represents preprocessed viral ds-DNA derived from the LTR U5 sequence of the viral genome. A ds-DNA control to test for non-specific interactions was made using a 3′ di-deoxy derivative of oligonucleotide #1 annealed to oligonucleotide #2. The CA overhang at the 5′ end of the non-biotinylated strand of the ds-DNA was created artificially by using a complimentary DNA oligonucleotide shortened by 2 base pairs. This configuration eliminates the requisite 3′ processing step of the integrase enzyme prior to the strand-transfer mechanism.
Host ds-DNA was prepared as an unlabeled and [^3H]-thymidine labeled product from annealed oligonucleotide #3-5-[…]-3′ (SEQ ID NO: 3), and oligonucleotide #4-1-5′-[…]-3′ (SEQ ID NO: 4), both synthesized by TriLink BioTechnologies, Inc. (San Diego, Calif.). The annealed product had overhanging 3′ ends of poly(dA). Host DNA was custom radiolabeled by PerkinElmer Life Sciences Inc. (Boston, Mass.) using an enzymatic method with a 12/1 ratio of [methyl-^3H]dTTP/cold ds-DNA to yield 5′-blunt end ds-DNA with a specific activity of >900 Ci/mmol. The radiolabeled product was purified using a NENSORB cartridge and stored in stabilized aqueous solution (PerkinElmer). The final radiolabeled product had six [^3H]-thymidine nucleotides at both 5′ ends of the host ds-DNA.
Reagents: Streptavidin-coated polyvinyltoluene (PVT) SPA beads were purchased from Amersham Biosciences (Piscataway, N.J.). Cesium chloride was purchased from Shelton Scientific, Inc. (Shelton, Conn.). White, polystyrene, flat-bottom, non-binding surface, 96-well plates were purchased from Corning. All other buffer components were purchased from Sigma (St. Louis, Mo.) unless otherwise indicated.
Enzyme Construction Full-length wild type HIV-1 integrase (SF1) sequence (amino acids 1-289) was constructed in a pET24a vector (Novagen, Madison, Wis.). The construct was confirmed through DNA sequencing.
Enzyme Purification Full length wild-type HIV Integrase was expressed in E. coli BL21 (DE3) cells and induced with 1 mM isopropyl-1 thio-β-D-galactopyranoside (IPTG) when cells reached an optical density between 0.8-1.0 at 600 nm. Cells were lysed by microfluidation in 50 mM HEPES pH 7.0, 75 mM NaCl, 5 mM DTT, 1 mM 4-(2-Aminoethyl)benzenesulfonylfluoride HCl (AEBSF). Lysate was then centrifuged 20 minutes at 11 k rpm in GSA rotor in Sorvall RC-5B at 4° C. Supernant was discarded and pellet resuspended in 50 mM HEPES pH 7.0, 750 mM NaCl, 5 mM DTT, 1 mM AEBSF and homogenized in a 40 mL Dounce homogenizer for 20 minutes on ice. Homogenate was then centrifuged 20 minutes at 11 k rpm in SS34 rotor in Sorvall RC-5B at 4° C. Supernant was discarded and pellet resuspended in 50 mM HEPES pH 7.0, 750 mM NaCl, 25 mM CHAPS, 5 mM DTT, 1 mM AEBSF. Preparation was then centrifuged 20 minutes at 11 k rpm in SS34 rotor in Sorvall RC-5B at 4° C.
Supernant was then diluted 1:1 with 50 mM HEPES pH 7.0, 25 mM CHAPS, 1 mM DTT, 1 mM AEBSF and loaded onto a Q-Sepharose column pre-equilibrated with 50 mM HEPES, pH 7.0, 375 mM NaCl, 25 mM CHAPS, 1 mM DTT, 1 mM AEBSF. The flow through peak was collected and NaCl diluted to 0.1 M with 50 mM HEPES pH 7.0, 25 mM CHAPS, 1 mM DTT, 0.5 mM AEBSF and loaded onto a SP-Sepharose column pre-equilibrated with 50 mM HEPES pH 7.0, 100 mM NaCl, 25 mM CHAPS, 1 mM DTT, 0.5 mM AEBSF. After washing the column with the equilibration buffer, a 100 to 400 mM NaCl gradient was run. The eluted integrase was concentrated and run on a S-300 gel diffusion column using 50 mM HEPES pH 7.0, 500 mM NaCl, 25 mM CHAPS, 1 mM DTT, 0.5 mM AEBSF. The peak from this column was concentrated to 0.76 mg/mL and stored at −70° C. and later used for strand transfer assays. […]
(In general: SPA uses beads or plates that emit light when radiolabelled molecules are held near them.)

The subject of assay [2] is RF strain of HIV-1 in CEM-SS cells. Description: HIV-1 cell protection assay (XTT dye reduction). The class given is cell-based. The protocol: HIV-1 Cell Protection Assay
The antiviral activities of potential modulator compounds (test compounds) were determined in HIV-1 cell protection assays using the RF strain of HIV-1, CEM-SS cells, and the XTT dye reduction method (Weislow, O, S. et al., J. Natl. Cancer Inst 81: 577-586 (1989)). Subject cells were infected with HIV-1 RF virus at an moi of to affect about a 90% kill (for example, an moi in the range of from about 0.025 to about 0.819) or mock infected with medium only and added at 2×10^4 cells per well, with the addition of approximately 200 μL of medium, into 96 well plates containing half-log dilutions of test compounds. Six days later, 50 μl of XTT solution (1 mg/ml XTT tetrazolium and 20 nM phenazine methosulfate) were added to the wells and the plates were reincubated for four hours. Viability, as determined by the amount of XTT formazan produced, was quantified spectrophotometrically by absorbance at 450 nm.
Data from CPE assays were expressed as the percent of formazan produced in compound-treated cells compared to formazan produced in wells of uninfected, compound-free cells. The fifty percent effective concentration (EC50) was calculated as the concentration of compound that affected an increase in the percentage of formazan production in infected, compound-treated cells to 50% of that produced by uninfected, compound-free cells. The 50% cytotoxicity concentration (CC50) was calculated as the concentration of compound that decreased the percentage of formazan produced in uninfected, compound-treated cells to 50% of that produced in uninfected, compound-free cells. The therapeutic index was calculated by dividing the cytotoxicity (CC50) by the antiviral activity (EC50).
Background: Tetrazolium dyes change colour on reduction, which living cells bring about.

Setting [3] is: integrase strand-transfer SPA, read-out: IC50.
[4] abbreviates: Human immunodeficiency virus 1, 144 h, HIV-1 RF, CEM-SS cells, XTT, six days, read-out: EC50.
Setting [5] is: Human immunodeficiency virus 1, CEM-SS, 144 h.

The term IC50 denotes the concentration at which inhibition is half-maximal. Broadly, the EC50 is the concentration giving half of the maximal effect. With `O=C(NO)c1cc2c(NS(=O)(=O)Cc3ccccc3)cn(Cc3ccc(F)cc3)c2cn1` [Example 19, 3-[(benzylsulfonyl)amino]-1-(4-fluorobenzyl)-N-hydroxy-1H-pyrrolo[2,3-c]pyridine-5-carboxamide], the half-maximal inhibitory concentration (IC50) in assay [1] (setting [3]) is 0.105 µM. Also, the EC50 in assay [2] (setting [4]) was found to be 0.018 µM.

With `O=C(NO)c1cc2c(NS(=O)(=O)c3ccc4c(c3)CNCC4)cn(Cc3ccc(F)cc3)c2cn1` [Example 20, 1-(4-fluorobenzyl)-N-hydroxy-3-[(1,2,3,4-tetrahydroisoquinolin-7-ylsulfonyl)amino]-1H-pyrrolo[2,3-c]pyridine-5-carboxamide], in assay [1] (setting [3]), the IC50 turned out to be 0.37 µM. In addition, the EC50 in assay [2] (setting [4]) turned out to be 0.58 µM.

Turning to `O=C(NO)c1cc2c(C(=O)NCCCN3CCCC3=O)cn(Cc3ccc(F)cc3)c2cn1` [Example 29, 1-(4-fluorobenzyl)-N~5~- hydroxy-N~3~-[3-(2-oxopyrrolidin-1-yl)propyl]-1H-pyrrolo[2,3-c]pyridine-3,5-dicarboxamide], the IC50 in assay [1] (setting [3]) was 0.07 µM. Also, the EC50 in assay [2] (setting [5]) amounted to 0.13 µM.

Take `CONC(=O)c1cc2c(C(=O)N3CCC[C@@H]3CO)cn(Cc3ccc(F)cc3)c2cn1` [Example 46]: in assay [1] (setting [3]), the IC50 came to 0.895 µM. The molecule also returned an EC50 in assay [2] (setting [5]) of 0.056 µM.

With `CN(O)C(=O)c1cc2c(C(=O)NCC34CCCN3CCC4)cn(Cc3ccc(F)cc3)c2cn1` [Example 14, 1-(4-fluorobenzyl)-N~5~- hydroxy-N~5~-methyl-N~3~-(tetrahydro-1H-pyrrolizin-7a(5H)-ylmethyl)-1H-pyrrolo[2,3-c]pyridine-3,5-dicarboxamide], the IC50 in assay [1] (setting [3]) came out at 2.6 µM. Moreover, in assay [2] (setting [5]), a half-maximal response (EC50) required 5.4 µM.

Consider `CN(O)C(=O)c1cc2c(C(=O)NCCN3CCOCC3)cn(Cc3ccc(F)cc3)c2cn1` [Example 32, 1-(4-fluorobenzyl)-N~5~- hydroxy-N~5~-methyl-N~3~-(2-morpholin-4-ylethyl)-1H-pyrrolo[2,3-c]pyridine-3,5-dicarboxamide], for which the IC50 in assay [1] (setting [3]) came out at 0.503 µM. The EC50 in assay [2] (setting [5]) was 0.21 µM.

As for `O=C1CN(S(=O)(=O)c2cn(Cc3ccc(F)cc3F)c3cnc(C(=O)NO)cc23)CCN1` [Example 38, 1-(2,4-difluorobenzyl)-N-hydroxy-3-[(3-oxopiperazin-1-yl)sulfonyl]-1H-pyrrolo[2,3-c]pyridine-5-carboxamide], the IC50 in assay [1] (setting [3]) is 0.265 µM. Also, the concentration giving a half-maximal response (EC50) in assay [2] (setting [4]) was found to be 8 µM.

Regarding `CONC(=O)c1cc2c(C(=O)NCCN3CCOCC3)cn(Cc3ccc(F)cc3)c2cn1` [Example 7, 1-(4-fluorobenzyl)-N~5~- methoxy-N~3~-(2-morpholin-4-ylethyl)-1H-pyrrolo[2,3-c]pyridine-3,5-dicarboxamide], in assay [1] (setting [3]), the concentration for half-maximal inhibition (IC50) came to 0.55 µM. In addition, in assay [2] (setting [5]), the midpoint of the response, the EC50, lay at 0.062 µM.

As to `O=C(NO)c1cc2c(C(=O)NCCN3CCOCC3)cn(Cc3ccc(F)cc3)c2cn1` [Example 27, 1-(4-fluorobenzyl)-N~5~- hydroxy-N~3~-(2-morpholin-4-ylethyl)-1H-pyrrolo[2,3-c]pyridine-3,5-dicarboxamide], the IC50 in assay [1] (setting [3]) was found to be 0.076 µM. Moreover, a half-maximal effect in assay [2] (setting [5]) (EC50) was put at 0.038 µM.

For the molecule `O=C(CC(NC(=O)c1cn(Cc2ccc(F)cc2)c2cnc(C(=O)NO)cc12)C1CC1)NC1CC1` (centres unmarked) [Example 24, N~3~-[1-cyclopropyl-3-(cyclopropylamino)-3-oxopropyl]-1-(4-fluorobenzyl)-N~5~- hydroxy-1H-pyrrolo[2,3-c]pyridine-3,5-dicarboxamide], the concentration for half-maximal inhibition (IC50) in assay [1] (setting [3]) came out at 0.016 µM. Besides, a half-maximal effect in assay [2] (setting [5]) (EC50) was put at 0.38 µM.

As to `CONC(=O)c1cc2c(C(=O)NC(C)C)cn(Cc3ccc(F)cc3)c2cn1` [Example 47, 1-(4-fluorobenzyl)-N3-isopropyl-N5-methoxy-1H-pyrrolo[2,3-c]pyridine-3,5-dicarboxamide], the IC50 in assay [1] (setting [3]) was 0.249 µM. In assay [2] (setting [5]), this molecule showed an EC50 of 0.032 µM.

On to `CN(O)C(=O)c1cc2c(C(=O)NCCCN3CCCC3=O)cn(Cc3ccc(F)cc3)c2cn1` [Example 16, 1-(4-fluorobenzyl)-N~5~- hydroxy-N~5~-methyl-N~3~-[3-(2-oxopyrrolidin-1-yl)propyl]-1H-pyrrolo[2,3-c]pyridine-3,5-dicarboxamide], for which the IC50 in assay [1] (setting [3]) was 0.211 µM. Moreover, in assay [2] (setting [5]), the EC50 stood at 0.18 µM.

Regarding `CONC(=O)c1cc2c(C(=O)N3CCC[C@H]3CO)cn(Cc3ccc(F)cc3)c2cn1` [Example 10, 1-(4-fluorobenzyl)-3-{[(2S)-2-(hydroxymethyl)pyrrolidin-1-yl]carbonyl}-N-methoxy-1H-pyrrolo[2,3-c]pyridine-5-carboxamide], the IC50 in assay [1] (setting [3]) was 1.14 µM. The midpoint of the response in assay [2] (setting [5]), the EC50, lay at 0.04 µM.

On to `CN(O)C(=O)c1cc2c(C(=O)NC(CC(=O)NC3CC3)C3CC3)cn(Cc3ccc(F)cc3)c2cn1` (centres unmarked) [Example 18, N~3~-[1-cyclopropyl-3-(cyclopropylamino)-3-oxopropyl]-1-(4-fluorobenzyl)-N~5~- hydroxy-N~5~-methyl-1H-pyrrolo[2,3-c]pyridine-3,5-dicarboxamide], for which the IC50 in assay [1] (setting [3]) came out at 0.23 µM. Also, in assay [2] (setting [5]), the half-maximal effective concentration (EC50) came to 0.46 µM.

In assay [1], `CN(O)C(=O)c1cc2c(S(=O)(=O)N3CCNC(=O)C3)cn(Cc3ccc(F)cc3F)c2cn1` [Example 41, 1-(2,4-difluorobenzyl)-N-hydroxy-N-methyl-3-[(3-oxopiperazin-1-yl)sulfonyl]-1H-pyrrolo[2,3-c]pyridine-5-carboxamide] displayed an IC50 of 1.15 µM. Moreover, in assay [2] (setting [4]), the EC50 was 3.3 µM.

Turning to `O=C(NO)c1cc2c(C(=O)N3CCC[C@H]3CO)cn(Cc3ccc(F)cc3)c2cn1` [Example 23, 1-(4-fluorobenzyl)-N-hydroxy-3-{[(2S)-2-(hydroxymethyl)pyrrolidin-1-yl]carbonyl}-1H-pyrrolo[2,3-c]pyridine-5-carboxamide], the IC50 in assay [1] (setting [3]) came to 0.075 µM. This molecule yielded an EC50 in assay [2] (setting [5]) of 0.057 µM.
